Among the data in article PMC13195669, “GPR3 Ligands Discovered through Combined Virtual and Conformational Biosensor-Based Screening” (Journal of the American Chemical Society, 2026) are EC50 values, retold here.

By EC50 is commonly meant the concentration needed to bring the measured effect to its halfway point.

This experiment addresses T1, GPR3 (Homo sapiens, UniProt P46089).
T1 construct: host or cells: HEK293A, transient
The experiment is described as follows: cAMP GloSensor 22F, GPR3-transfected HEK293A cells. The class given is cell-based. The following applies: read-out: EC50 of cAMP decrease in GPR3-expressing cells. The source says: Next, we used the classical cAMP GloSensor technology to assess the target selectivity profile of 33. […] In addition, we tested the effects of 33 on cAMP changes mediated by agonist-stimulated GPCRs phylogenetically close to GPR3 and coupling to Gs or Gi/o proteins. […]
conditioning and no constraints were applied. The poses were visually inspected and the most favorable one that coincides with the co-solved ligand according to the available structures was chosen.
Plasmids and molecular cloning
The H187-EPAC-FRET sensor7 was kindly provided by K. Jalink (The Netherlands Cancer Institute, Amsterdam, The Nether-lands). The BRET-based cAMP sensor CAMYEL8 was kindly provided by Laura Humphrys (University of Regensburg, Regens-burg, Germany). Plasmids encoding the conformational biosensors α2AAR- and β2AR-HaloTag/Nluc9 and the Gs heterotrimer dissociation sensor10 were previously described. The expression plasmid encoding N-terminally HA-tagged GPR3 (cat. no.
#GPR003TN00) on a pcDNA3.1+ vector was obtained from the cDNA resource center (cdna.org). The Nluc and HaloTag in-serts were amplified with overhanging restriction sites from β2AAR- HaloTag/Nluc and ligated to the full-length C-terminus or inserted into icl3 of GPR3, respectively, to obtain the conformational biosensor GPR3-HaloTag/Nluc. […]

T1 sequence (P46089 whole entry): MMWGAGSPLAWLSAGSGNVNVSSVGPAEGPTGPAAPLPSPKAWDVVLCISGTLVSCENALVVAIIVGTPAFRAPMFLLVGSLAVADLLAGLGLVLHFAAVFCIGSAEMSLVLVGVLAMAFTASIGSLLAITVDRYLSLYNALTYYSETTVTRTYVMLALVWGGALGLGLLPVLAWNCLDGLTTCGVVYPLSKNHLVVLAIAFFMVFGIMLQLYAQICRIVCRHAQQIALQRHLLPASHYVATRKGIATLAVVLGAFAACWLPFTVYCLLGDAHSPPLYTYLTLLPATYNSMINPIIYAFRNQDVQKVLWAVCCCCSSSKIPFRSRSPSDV

For the molecule `N=c1n(Cc2ccccc2)c2ccccc2n1CC1CC1` [compound 33], the EC50 was determined as 2000 nM.
